# According to US8518911B2, “Pyrazolo[1,5-a]pyridines as MARK inhibitors” (Merck Sharp & Dohme Corp., priority 2008, dated 2013):
# Target: T1, recombinant MARK3 enzyme (Homo sapiens, UniProt P27448)
# T1 construct: purchased University of Dundee
# Experiment: MARK 3 Assay (HTRF, Cdc25C biotinylated peptide substrate)
# Type: biochemical
# Conditions: MARK3, 10 μM ATP, 1 μM peptide substrate, 2 hours at 25° C.
# Description: MARK3 activity was assayed in vitro using a Cdc25C biotinylated peptide substrate (Cell Signalling Technologies). The phosphopeptide product was quantitated using a Homogenous Time-Resolved Fluorescence (HTRF) assay system (Park et al., 1999, Anal. Biochem. 269:94-104). The reaction mixture contained 50 mM HEPES/Tris-HCl, pH 7.4; […], 5 mM MgCl2, 0.2 mM NaVO4, 5 mM β-glycerol phosphate, 0.1% Tween-20, 2 mM dithiothreitol, 0.1% BSA, 10 μM ATP, 1 μM peptide substrate, and 10 nM recombinant MARK3 enzyme (University of Dundee) in a final volume of 12 μL. The buffer additionally contained protease inhibitor cocktail (Roche EDTA-free, 1 tab per 50 ml). The kinase reaction was incubated for 2 hours at 25° C., and then terminated with 3 μl Stop/Detection Buffer (50 mM HEPES, pH 7.0, 16.6 mM EDTA, 0.5M KF, 0.1% Tween-20, 0.1% BSA, 2 μg/ml SLX^ent 665 (CISBIO), and 2 μg/mL Eu^3+ cryptate label antibody (CISBIO)). The reaction was allowed to equilibrate overnight at 0° C., and relative fluorescent units were read on an HTRF enabled plate reader (e.g. TECAN GENios Pro).
# Inhibitor compounds were assayed in the reaction described above to determine compound IC50s. Aliquots of compound dissolved in DMSO were added to the reaction wells in a third-log dilution series covering a range of 1 nM to 10 μM. Relative phospho substrate formation, read as HTRF fluorescence units, was measured over the range of compound concentrations and a titration curve generated.
# T1 sequence (P27448 whole entry, species assumed): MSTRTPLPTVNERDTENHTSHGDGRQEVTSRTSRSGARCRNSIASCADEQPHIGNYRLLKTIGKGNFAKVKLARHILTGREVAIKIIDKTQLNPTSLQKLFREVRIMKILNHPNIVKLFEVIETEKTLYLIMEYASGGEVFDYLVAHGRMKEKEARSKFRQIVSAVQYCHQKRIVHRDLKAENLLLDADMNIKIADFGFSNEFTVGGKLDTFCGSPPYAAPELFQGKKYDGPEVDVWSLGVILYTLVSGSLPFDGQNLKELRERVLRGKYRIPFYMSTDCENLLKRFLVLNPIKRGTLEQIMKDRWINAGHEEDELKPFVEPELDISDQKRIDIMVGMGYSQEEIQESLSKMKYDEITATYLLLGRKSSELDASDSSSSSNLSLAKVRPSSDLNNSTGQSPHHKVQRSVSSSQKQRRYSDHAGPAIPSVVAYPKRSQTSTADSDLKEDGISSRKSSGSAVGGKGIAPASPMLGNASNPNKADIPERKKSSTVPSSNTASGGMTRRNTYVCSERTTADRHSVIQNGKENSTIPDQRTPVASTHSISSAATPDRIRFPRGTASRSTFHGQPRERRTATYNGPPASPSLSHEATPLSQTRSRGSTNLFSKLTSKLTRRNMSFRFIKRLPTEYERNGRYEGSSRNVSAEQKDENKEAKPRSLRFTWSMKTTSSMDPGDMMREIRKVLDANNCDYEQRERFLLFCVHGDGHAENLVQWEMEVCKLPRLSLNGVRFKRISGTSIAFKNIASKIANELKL
row,Structure (SMILES),IC50 [nM]
1,N[C@@H]1CCCC(F)(F)[C@@H]1NC(=O)c1nc(-c2cnn3cc(-c4ccc(F)cc4)ccc23)c(Cl)s1 [Example 1],21
2,"Cc1sc(C(=O)NC(CN)c2ccccc2)nc1-c1cnn2cc(-c3cnn(C)c3)ccc12 (stereo not drawn) [Example 182, N-(2-Amino-1-phenylethyl)-5-methyl-4-[6-(1-methyl-1H-pyrazol-4-yl)pyrazolo[1,5-a]pyridin-3-yl]-1,3-thiazole-2-carboxamide]",13
3,"CCc1sc(C(=O)N[C@@H]2[C@@H](N)CCCC2(F)F)cc1-c1cnn2cc(F)ccc12 [Example 170, N-[(1R,6S)-6-Amino-2,2-difluorocyclohexyl]-5-ethyl-4-(6-fluoropyrazolo[1,5-a]pyridin-3-yl)thiophene-2-carboxamide]",29
4,"N[C@@H]1CCCC(F)(F)[C@@H]1NC(=O)c1cc(-c2cnn3ccccc23)c(Cl)s1 [Example 206, N-[(1R,6R)-6-amino-2,2-difluorocyclohexyl]-5-chloro-4-pyrazolo[1,5-a]pyridin-3-yl-2-thiophenecarboxamide]",19

# These reach a lower IC50. Values come first.
row,IC50 [nM],Structure (SMILES)
1,4,"N[C@H]1CCCC(F)(F)[C@@H]1NC(=O)c1nc(-c2cnn3ccccc23)c(Cl)s1 [Example 7, N-[(1R,6S)-6-Amino-2,2-difluorocyclohexyl]-5-chloro-4-pyrazolo[1,5-a]pyridin-3-yl-1,3-thiazole-2-carboxamide]"
2,0.5,"C=C(C)c1ccc2c(-c3csc(C(=O)N[C@@H]4[C@@H](N)CCCC4(F)F)n3)cnn2c1 [Example 157, N-[(1R,6S)-6-Amino-2,2-difluorocyclohexyl]-4-(6-isopropenylpyrazolo[1,5-a]pyridin-3-yl)-1,3-thiazole-2-carboxamide]"
